Test results taken from patent publication US11999746B2, “Compounds” (GlaxoSmithKline Intellectual Property Development Limited, priority 2014, dated 2024).

Tests used:
[1] = target: T1, recombinant human Lp-PLA2 (Homo sapiens, UniProt Q13093); experiment: (1a) PED6 assay, recombinant human Lp-PLA2 (rhLp-PLA2); type: biochemical; details: Examples 1-167 and 413-430 were tested here, one experiment or average of multiple experiments, read-out: rhLp-PLA2 (pIC50) (converted)
T1 sequence (Q13093 22-441): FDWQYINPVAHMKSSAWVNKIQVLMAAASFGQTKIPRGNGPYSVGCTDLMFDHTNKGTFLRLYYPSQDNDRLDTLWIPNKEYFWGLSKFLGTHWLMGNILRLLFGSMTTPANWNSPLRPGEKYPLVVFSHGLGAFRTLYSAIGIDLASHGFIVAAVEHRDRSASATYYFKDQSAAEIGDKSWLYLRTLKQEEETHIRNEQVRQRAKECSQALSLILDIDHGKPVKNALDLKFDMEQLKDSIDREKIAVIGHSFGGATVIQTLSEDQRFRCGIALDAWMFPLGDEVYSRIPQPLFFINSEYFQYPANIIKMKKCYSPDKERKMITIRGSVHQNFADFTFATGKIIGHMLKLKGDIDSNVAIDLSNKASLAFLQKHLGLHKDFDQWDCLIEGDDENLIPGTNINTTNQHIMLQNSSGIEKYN
Method in brief: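 PED6 (2 μM final after 1:1 addition of 4 μM stock) cleavage by rhLp-PLA2 (4 nM working solution) in 50 mM HEPES pH 7.4, 150 mM NaCl, 1 mM CHAPS; compounds preincubated with enzyme 30 minutes, reaction 20 min at room temperature. Fluorescence at ex 480/em 540; pIC50 from curve fit.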

Lp-PLA2 in human plasma = target: T2, Lp-PLA2 in human plasma (Homo sapiens, UniProt Q13093); experiment: (3a) Lp-PLA2 human plasma Thio-PAF assay; type: biochemical; details: (3a) Thio-PAF assay, pooled human plasma; Examples 1-265 and 413-430 were tested here; read-out: pIC50 in the Lp-PLA2 human plasma assay (converted)
T2 construct: from tissue; host or cells: pooled human plasma
T2 sequence (Q13093 22-441): T1 sequence (Q13093 22-441)
Method in brief: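 Endogenous Lp-PLA2 activity in frozen pooled human plasma measured as thiol release from 2-thio-PAF, detected by CPM fluorescence (ex 380/em 485). Compound preincubation 30 min; 2-min reaction in HEPES pH 7.4 buffer with NEM, stopped with 5% TFA, read 40 min later at room temperature; values as pIC50.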

| Structure (SMILES) | IC50 [1] [nM] | IC50 (Lp-PLA2 in human plasma) [nM] |
| --- | --- | --- |
| O=c1nc(OCc2ccc(F)cc2F)cc2n1C[C@@H]1CCCCN21 [Example E57, (S)-3-((2,4-Difluorobenzyl)oxy)-6,7,8,9,9a,10-hexahydro-1H-pyrido[1′,2′:3,4]imidazo[1,2-c] pyrimidin-1-one] | ≤ 100 | ≤ 10000 |
| O=c1nc(OCc2cccc(F)c2F)cc2n1C[C@@H]1CCCCN21 [Example E58, (S)-3-((2,3-Difluorobenzyl)oxy)-6,7,8,9,9a,10-hexahydro-1H-pyrido[1′,2′:3,4]imidazo[1,2-c] pyrimidin-1-one] | ≤ 100 | ≤ 10000 |
| O=c1nc(OCc2cc(F)c(F)cc2F)cc2n1C[C@@H]1CCCCN21 [Example E59, (S)-3-((2,4,5-Trifluorobenzyl)oxy)-6,7,8,9,9a,10-hexahydro-1H-pyrido[1′,2′:3,4]imidazo[1,2-c]pyrimidin-1-one] | ≤ 100 | ≤ 10000 |
| O=c1nc(OCc2cccc(F)c2)cc2n1C[C@@H]1CCCCN21 [Example E60, (S)-3-((3-Fluorobenzyl)oxy)-6,7,8,9,9a,10-hexahydro-1H-pyrido[1′,2′:3,4]imidazo[1,2-c] pyrimidin-1-one] | ≤ 100 | ≤ 10000 |
| O=c1nc(OCc2cc(F)c(OC3(CCF)CC3)c(F)c2)cc2n1C[C@H]1CCCCN21 [Example E62, (R)-3-((3,5-Difluoro-4-(1-(2-fluoroethyl)cyclopropoxy)benzyl)oxy)-6,7,8,9,9a,10-hexahydro-1H-pyrido[1′,2′:3,4]imidazo[1,2-c]pyrimidin-1-one] | ≤ 100 | ≤ 10000 |
| Cn1cc(Oc2c(F)cc(COc3cc4n(c(=O)n3)CC3CCCN43)cc2F)cn1 (stereo not drawn) [Example E63, 3-((3,5-Difluoro-4-((1-methyl-1H-pyrazol-4-yl)oxy)benzyl)oxy)-7,8,8a,9-tetrahydro pyrrolo[1′,2′:3, 4] imidazo[1,2-c] pyrimidin-1(6H)-one] | ≤ 100 | ≤ 10000 |
| CCn1cc(Oc2c(F)cc(COc3cc4n(c(=O)n3)CC3CCCN43)cc2F)cn1 (stereo not drawn) [Example E64, 3-((4-((1-Ethyl-1H-pyrazol-4-yl)oxy)-3,5-difluorobenzyl)oxy)-7,8,8a, 9-tetrahydropyrrolo[1′,2′:3,4]imidazo[1,2-c]pyrimidin-1(6H)-one] | ≤ 100 | ≤ 10000 |
| CC(C)n1cc(Oc2c(F)cc(COc3cc4n(c(=O)n3)CC3CCCN43)cc2F)cn1 (stereo not drawn) [Example E65, 3-((3,5-Difluoro-4-((1-isopropyl-1H-pyrazol-4-yl)oxy)benzyl)oxy)-7,8,8a, 9-tetrahydro pyrrolo[1′,2′:3,4]imidazo[1,2-c]pyrimidin-1(6H)-one] | ≤ 100 | ≤ 10000 |
| Cn1cc(Oc2c(F)cc(COc3cc4n(c(=O)n3)C[C@H]3CCCN43)cc2F)cn1 [Example E66, (R)-3-((3,5-difluoro-4-((1-methyl-1H-pyrazol-4-yl)oxy)benzyl)oxy)-7,8,8a, 9-tetrahydro pyrrolo[1′,2′:3,4]imidazo[1,2-c]pyrimidin-1(6H)-one] | ≤ 100 | ≤ 10000 |
| Cn1cc(Oc2ccc(COc3cc4n(c(=O)n3)C[C@H]3CCCN43)cc2F)cn1 [Example E68, (R)-3-((3-fluoro-4-((1-methyl-1H-pyrazol-4-yl)oxy)benzyl)oxy)-7,8,8a, 9-tetrahydro pyrrolo[1′,2′:3,4]imidazo[1,2-c]pyrimidin-1(6H)-one] | ≤ 100 | ≤ 10000 |
| O=c1nc(OCc2ccc(Oc3cnc(C(F)(F)F)nc3)c(F)c2)cc2n1C[C@H]1CCCN21 [Example E69, (R)-3-((3-fluoro-4-((2-(trifluoromethyl)pyrimidin-5-yl)oxy)benzyl)oxy)-7,8,8a, 9-tetra hydropyrrolo[1′,2′:3,4]imidazo[1,2-c]pyrimidin-1(6H)-one] | ≤ 100 | ≤ 100 |
| O=c1nc(OCc2cc(F)c(F)c(F)c2)cc2n1C[C@H]1CCCN21 [Example E70, (R)-3-((3,4,5-trifluorobenzyl)oxy)-7,8,8a,9-tetrahydropyrrolo[1′,2′:3,4]imidazo[1,2-c] pyrimidin-1(6H)-one] | ≤ 100 | ≤ 100 |
| O=c1nc(OCc2ccc(Oc3cnc(C(F)(F)F)nc3)c(F)c2)cc2n1C[C@@H]1CCCN21 [Example E72, (S)-3-((3-fluoro-4-((2-(trifluoromethyl)pyrimidin-5-yl)oxy)benzyl)oxy)-7,8,8a, 9-tetra hydropyrrolo[1′,2′:3,4]imidazo[1,2-c]pyrimidin-1(6H)-one] | ≤ 100 | ≤ 10000 |
| O=c1nc(OCc2cc(F)c(F)c(F)c2)cc2n1C[C@@H]1CCCN21 [Example E73, (S)-3-((3,4,5-trifluorobenzyl)oxy)-7,8,8a,9-tetrahydropyrrolo[1,2′:3,4]imidazo[1,2-c] pyrimidin-1(6H)-one] | ≤ 100 | ≤ 10000 |
| O=c1nc(OCc2cc(F)c(Oc3ccc(F)c(F)c3)c(F)c2)cc2n1C[C@@H]1CCCN21 [Example E74, (S)-3-((4-(3,4-difluorophenoxy)-3,5-difluorobenzyl)oxy)-7,8,8a,9-tetrahydropyrrolo[1′,2′:3,4]imidazo[1,2-c]pyrimidin-1(6H)-one] | ≤ 100 | ≤ 10000 |
| O=c1nc(OCc2cc(F)c(Oc3ccnc(C(F)(F)F)c3)c(F)c2)cc2n1CC1CCCN21 (stereo not drawn) [Example E75, 3-((3,5-difluoro-4-((2-(trifluoromethyl)pyridin-4-yl)oxy)benzyl)oxy)-7,8,8a, 9-tetrahydro pyrrolo[1′, 2′:3, 4]imidazo[1,2-c]pyrimidin-1(6H)-one] | ≤ 1 | ≤ 100 |
| O=c1nc(OCc2cnc(Oc3ccc(Cl)c(C(F)(F)F)c3)c(F)c2)cc2n1CC1CCCN21 (stereo not drawn) [Example E76, 3-((6-(4-Chloro-3-(trifluoromethyl)phenoxy)-5-fluoropyridin-3-yl)methoxy)-7,8,8a,9 tetra hydro pyrrolo[1′,2′:3,4]imidazo[1,2-c]pyrimidin-1(6H)-one] | ≤ 100 | ≤ 10000 |
| N#Cc1cc(COc2cc3n(c(=O)n2)CC2CCCN32)ccc1Oc1ccc(Cl)c(C(F)(F)F)c1 (stereo not drawn) [Example E77, 2-(4-Chloro-3-(trifluoromethyl)phenoxy)-5-(((1-oxo-1,6,7,8,8a,9-hexahydropyrrolo[1,2′:3,4]imidazo[1,2-c]pyrimidin-3-yl)oxy)methyl)benzonitrile] | ≤ 1 | ≤ 100 |
| O=c1nc(OCc2cc(F)c(Oc3ccc(C(F)(F)F)nc3)c(F)c2)cc2n1CC1CCCN21 (stereo not drawn) [Example E78, 3-((3,5-Difluoro-4-((6-(trifluoromethyl)pyridin-3-yl)oxy)benzyl)oxy)-7,8,8a,9-tetrahydro pyrrolo[1′,2′:3,4]imidazo[1,2-c]pyrimidin-1(6H)-one] | ≤ 1 | ≤ 100 |
| O=c1nc(OCc2cc(F)c(Oc3ccc(C(F)(F)F)nc3)c(F)c2)cc2n1C[C@H]1CCCN21 [Example E79, (R)-3-((3,5-difluoro-4-((6-(trifluoromethyl)pyridin-3-yl)oxy)benzyl)oxy)-7,8,8a,9-tetrahydro pyrrolo[1′,2′:3,4]imidazo[1,2-c]pyrimidin-1(6H)-one] | ≤ 1 | ≤ 100 |
| O=c1nc(OCc2cc(F)c(Oc3ccc(C(F)(F)F)nc3)c(F)c2)cc2n1C[C@@H]1CCCN21 [Example E80, (S)-3-((3,5-difluoro-4-((6-(trifluoromethyl)pyridin-3-yl)oxy)benzyl)oxy)-7,8,8a,9-tetrahydro pyrrolo[1′,2′:3,4]imidazo[1,2-c]pyrimidin-1(6H)-one] | ≤ 100 | ≤ 10000 |
| O=c1nc(OCc2cc(F)c(Oc3cccc(C(F)(F)F)c3)c(F)c2)cc2n1CC1CCCN21 (stereo not drawn) [Example E81, 3-((3,5-difluoro-4-(3-(trifluoromethyl)phenoxy)benzyl)oxy)-7,8,8a,9-tetrahydropyrrolo[1′,2′:3, 4]imidazo[1,2-c]pyrimidin-1(6H)-one] | ≤ 1 | ≤ 100 |
| O=c1nc(OCc2ccc(Oc3ccc(F)c(C(F)(F)F)c3)nc2)cc2n1CC1CCCN21 (stereo not drawn) [Example E82, 3-((6-(4-fluoro-3-(trifluoromethyl)phenoxy)pyridin-3-yl)methoxy)-7,8,8a,9-tetrahydro pyrrolo[1′,2′:3,4]imidazo[1,2-c]pyrimidin-1(6H)-one] | ≤ 100 | ≤ 10000 |
| O=c1nc(OCc2cc(F)c(Oc3cccc(C(F)(F)F)c3)c(F)c2)cc2n1C[C@@H]1CCCN21 [Example E83, (S)-3-((3,5-difluoro-4-(3-(trifluoromethyl)phenoxy)benzyl)oxy)-7,8,8a,9-tetrahydropyrrolo[1′,2′:3, 4]imidazo[1,2-c]pyrimidin-1(6H)-one] | ≤ 1 | ≤ 100 |
